Source: the NIST ThermoML archive (doi:10.1016/j.fluid.2013.06.050)

What was measured:
[1] = xn = mol fraction of the nth substance listed; details: 298.15 K, 101 kPa, Liquid
[2] = refractive index (Na D-line) (dimensionless); xn = mol fraction of the nth substance listed; details: 298.15 K, 101 kPa, Liquid, Standard Abbe refractometry

OCCCCO [1,4-butanediol] + C[N+](C)(C)CCO.[Cl-]
[1], vibrating tube
Details	mass density [kg/m3]
x2 = 0.25	1061
x2 = 0.28	1067
x2 = 0.34	1073.1

[2]
Details	refractive index
x2 = 0.25	1.4656
x2 = 0.28	1.468
x2 = 0.34	1.4718

CCN(CC)CCO.Cl [2-(diethylamino)ethanol hydrochloride] + OCC(O)CO
[1], vibrating tube
Details	mass density [kg/m3]
x1 = 0.2	1220.4
x1 = 0.25	1205.7
x1 = 0.34	1183.6

[2]
Details	refractive index
x2 = 0.2	1.4812
x2 = 0.25	1.4825
x2 = 0.34	1.4853

CCN(CC)CCO.Cl [2-(diethylamino)ethanol hydrochloride] + OCCO
[1], Vibrating tube method
Details	mass density [kg/m3]
x1 = 0.2	1103.7
x1 = 0.25	1101.8
x1 = 0.28	1100.6

[2]
Details	refractive index
x1 = 0.2	1.4574
x1 = 0.25	1.462
x1 = 0.28	1.465

C[N+](C)(C)CCO.[Cl-] [choline chloride] + OCC(O)CO
[1], vibrating tube
Details	mass density [kg/m3]
x1 = 0.25	1203.5
x1 = 0.34	1192.4
x1 = 0.5	1162.2

[2]
Details	refractive index
x1 = 0.25	1.4818
x1 = 0.34	1.4852
x1 = 0.5	1.491

C[N+](C)(C)CCO.[Cl-] [choline chloride] + OCCO
[1], vibrating tube
Details	mass density [kg/m3]
x1 = 0.28	1117.3
x1 = 0.34	1117.7
x1 = 0.36	1118.4

[2]
Details	refractive index
x1 = 0.28	1.4611
x1 = 0.34	1.465
x1 = 0.36	1.4678

C[P+](c1ccccc1)(c1ccccc1)c1ccccc1.[Br-] [methyltriphenylphosphonium bromide] + OCC(O)CO
[1], Vibrating tube method
Details	mass density [kg/m3]
x1 = 0.2	1289.3
x1 = 0.25	1298
x1 = 0.34	1307.1

[2]
Details	refractive index
x1 = 0.2	1.5597
x1 = 0.25	1.5715
x1 = 0.34	1.5917

C[P+](c1ccccc1)(c1ccccc1)c1ccccc1.[Br-] [methyltriphenylphosphonium bromide] + OCCO
[1], Vibrating tube method
Details	mass density [kg/m3]
x1 = 0.16	1220.2
x1 = 0.2	1233
x1 = 0.25	1250.4

[2]
Details	refractive index
x1 = 0.16	1.5398
x1 = 0.2	1.553
x1 = 0.25	1.5678

C[P+](c1ccccc1)(c1ccccc1)c1ccccc1.[Br-] [methyltriphenylphosphonium bromide] + OCCOCCOCCO
[1], Vibrating tube method
Details	mass density [kg/m3]
x1 = 0.16	1186
x1 = 0.2	1199.2
x1 = 0.25	1216.4

[2]
Details	refractive index
x1 = 0.16	1.5178
x1 = 0.2	1.5263
x1 = 0.25	1.5417
